# From patent publication US5859019A, “Methods for protecting against cardiac ischemia by administering adenosine A2a receptor antagonists” (priority 1997, dated 1999)
# Legend:
# Type in all cases: cell-based
# [1] = test system: ventricular cells cultured from chick embryos; assay: Hypoxia-induced injury / preconditioning of cultured ventricular cells (% cells killed, CK released); conditions: for Ability to replace preconditioning hypoxia (protection against injury by ninety-minute hypoxia; % cells killed, CK released): agent given for 5 min in place of preconditioning hypoxia, before 90-min hypoxia, adenosine 10 μM, R-PIA 10 μM; for Ability to replace preconditioning hypoxia (protection against injury by ninety-minute hypoxia; % cells killed, CK released) / Effect on protection by preconditioning hypoxia (% cells killed, CK released): CGS21680 1 μM; for Effect on protection by preconditioning hypoxia (% cells killed, CK released): agent present during five-minute preconditioning hypoxia, CSC 1 μM, 8-SPT 100 μM, isoproterenol 0.3 μM, forskolin 1 μM, BayK 8644 0.1 μM
# Protocol: Ventricular cells were cultured from chick embryos 14 days in ovo, according to a previously described procedure (20, 27). Cells were plated at a density of 400,000 cells per ml and cultivated in a humidified 5% CO2 -95% air mixture at 37° C. […] For preconditioning studies, the medium was changed to a HEPES-buffered medium containing (mM) 139 NaCl, 4.7 KCl, 0.5 MgCl2, 0.9 CaCl2, 5 HEPES (N-2-hydroxyethylpiperazine-N'-2-ethanesulfonic acid) and 2% fetal bovine serum, pH=7.4, 37° C. before exposing cells to the various conditions at 37° C. Control cells were maintained in the HEPES-buffered media under room air. Hypoxia was produced by placing the cells in a hypoxic incubator (NuAire) where O2 was replaced by N2. The % O2 was monitored by both an oxygen Fyrite Gas Analyzer (Bacharach) and an oxygen analyzer (Model OX630, Engineered Systems & Designs). Preconditioning was induced by exposing the cells to five minutes of hypoxia, termed preconditioning hypoxia, prior to a second ninety-minute hypoxia. Cells not subjected to preconditioning were exposed to ninety minutes of hypoxia only (nonpreconditioned cells). The extracellular pH was similarly maintained at 7.4 by HEPES in both preconditioned and nonpreconditioned cells. Determination of basal level of cell injury was made after parallel incubation of control cells under normal % O2. For preconditioned and nonpreconditioned cells, determination of cell injury was made at the end of the ninety-minute hypoxic period.
# The extent of hypoxia-induced injury to the ventricular cell was quantitatively determined by the percentages of cells killed and by the amount of creatine kinase (CK) released into the media. To quantitate the % cells killed, cells were exposed to a trypsin-EDTA Hanks' balanced salt solution for 10 minutes for detachment after the various treatment, followed by centrifugation (300 × g for 10 minutes) and resuspension in culture media for counting in a hemocytometer. Only live cells sedimented and the cells counted represented those that survived (29). None of the sedimented cells subsequently counted included trypan blue. […] There was no protein or CK in the culture media following a second 300 × g centrifugation of resuspended cells previously treated with trypsin-EDTA. […] In contrast, the trypsin-EDTA media from cells exposed to 90 minutes of hypoxia contained substantial amount of proteins (0.15±0.03 mg, n=9) and CK activity (16±3 unit/mg protein, n=8). […] Because trypsin may cause further proteolysis of proteins and CK, the amount of protein and CK retained by the damaged cells in the trypsin-EDTA media may not accurately reflect those associated with the damaged cells. In support of the notion that exposure to 90 minutes of hypoxia caused significant cell injury and loss of membrane integrity, there was also marked release of LDH (hypoxia-exposed cells, 35.5±2.7, unit/mg, n=8, ±S.E. vs. control cells, 6.1±0.4 unit/mg, n=8) and proteins (hypoxia-exposed cells, 0.15±0.03 mg, n=8 vs. control cells, 0.034±0.01 mg, n=8) from the cells incubated under prolonged hypoxia. Thus, the cell viability assay separated out the hypoxia-damaged from the control normoxia-exposed cells. […] The amount of CK was measured as enzyme activity (unit/mg), and increases in CK activity above the control level were determined. The percentage of cells killed was calculated as the number of cells obtained from the control group (representing cells not subjected to any hypoxia or drug treatment) minus the number of cells from the treatment group divided by number of cells in control group multiplied by 100%.
# To investigate the role of adenosine in mediating the preconditioning effect, the ventricular cells, instead of being exposed to the brief hypoxia, were incubated with adenosine (10 μM) for 5 minutes prior to the ninety minute hypoxia. In adenosine-treated cells, media were replaced with adenosine-free media for ten minutes prior to a ninety-minute hypoxic exposure. […]
# [2] = test system: ventricular cells cultured from chick embryos; assay: Cyclic AMP level in cultured ventricular cells (radioimmunoassay); conditions: Gallus gallus; isoproterenol 0.3 μM, forskolin 1 μM; n=6, ±S.E.; read-out: % increase in cAMP level
# Protocol: (§1) Determination of ^45 Ca uptake was made according to a modification of previously described method (20). Cultures were incubated with L-(3, 4, 5-^3 H, N)-leucine (152.2 Ci/mmol) for a 24 hour prior to ^45 Ca uptake. [^3 H] leucine incorporated into the cellular protein allowed normalization of ^45 Ca content to mg cell protein. After incubation with ^45 Ca-containing medium, cells were then washed free of ^45 Ca and solubilized for 2 hours with 1% sodium dodecyl sulfate and 10 mM sodium borate and the levels of ^3 H and ^45 Ca were determined. For all data comparing the effect of different agents on ^45 Ca uptake, one-way ANOVA analysis followed by group comparison with t-test was carried out at each time point of the ^45 Ca uptake. Cyclic AMP level was determined according to a previously described radioimmunoassay (27).
# [3] = test system: ventricular cells cultured from chick embryos; assay: 45Ca uptake in cultured ventricular cells; conditions: for Calcium influx into the cultured cells: isoproterenol 0.3 μM, forskolin 1 μM, BayK 8644 0.1 μM, data not shown
# Protocol: as §1
Structure (SMILES),"Ability to replace preconditioning hypoxia (protection against injury by ninety-minute hypoxia; % cells killed, CK released) [1]","Effect on protection by preconditioning hypoxia (% cells killed, CK released) [1]",activation at 1 µM [2] [%],Calcium influx into the cultured cells [3],activation at 0.3 µM [2] [%],"Effect on attenuation of preconditioning by isoproterenol, forskolin and BayK 8644 ([1]; nifedipine 1 μM during preconditioning hypoxia)",Effect on CGS21680-induced attenuation of preconditioning ([1]; nifedipine 1 μM with CGS21680 during preconditioning hypoxia),"Effect on increase in calcium uptake by isoproterenol, forskolin and BayK 8644 ([3]; nifedipine)"
C=C[C@@]1(C)CC(=O)[C@]2(O)[C@@]3(C)[C@@H](O)CCC(C)(C)[C@@H]3[C@H](O)[C@H](OC(C)=O)[C@@]2(C)O1 [forskolin],"Neither isoproterenol, forskolin nor BayK8644 had any effect on the level of protection",caused an increase in % cells killed and amount of CK released,54.8 ± 9.7,induced increased calcium influx,,,,
CC(C)NCC(O)c1ccc(O)c(O)c1 (stereo not drawn) [isoproterenol],"Neither isoproterenol, forskolin nor BayK8644 had any effect on the level of protection",caused an increase in % cells killed and amount of CK released,,induced increased calcium influx,228 ± 31,,,
COC(=O)C1=C(C)NC(C)=C(C(=O)OC)C1c1ccccc1[N+](=O)[O-] [nifedipine],did not simulate preconditioning,,,,,abolished,abolished the CGS21680-induced attenuation of cardioprotection,blocked the increase in calcium uptake
